# Measurements taken from US20230058316A1, “PEGYLATED IGE-DEPENDENT HISTAMINE-RELEASING FACTOR (HRF)-BINDING PEPTIDE AND USE THEREOF” (EWHA UNIVERSITY - INDUSTRY COLLABORATION FOUNDATION, priority 2020, published 2023).
# Where no end group is shown, it is not given here.
# Tested on: IL-13
# Assay: IL-13 secretion in bronchoalveolar lavage fluid, ovalbumin-induced bronchial asthma and rhinitis mouse model
# Assay type: in vivo
# Settings: 1 mg/kg IP
# Method: A bronchial asthma and rhinitis animal model was prepared by the following method. An ovalbumin solution was prepared by dissolving ovalbumin in an aluminum hydroxide solution (1 mg/ml) 28 and 14 days before the start of inducing bronchial asthma and rhinitis, and 200 μl of the solution was intraperitoneally injected into each mouse for sensitization. After 14 days of final sensitization, 20 μl of saline/PBS (normal control; NC) or 20 μl of 10 mg/mL ovalbumin solution (positive control; PC) was instilled into the nasal cavity of each lightly anesthetized mouse 4 times every other day for 8 days to induce bronchial asthma and rhinitis.
# After the end of the experiment, the amount of IL-13 in the supernatant obtained by centrifuging bronchoalveolar lavage fluid was measured and quantified by enzyme immunosorbent detection using mouse IL-13 ELISA kit (R&D system, USA).
# Next, in order to confirm whether there is an effect of inhibiting IL-13 secretion even when administered in a small number of times, the dTBP2 of Preparative Example 4 and Example 3 was administered to the mouse model of Example 4-1 through intraperitoneal injection once in 4 days for a total of 2 times for 8 days inducing bronchial asthma and rhinitis. The amount of IL-13 was measured and quantified by the enzyme immunosorbent detection method in the same manner.
# In addition, the dTBP2 of Preparative Example 4 and Example 3 was administered to the mouse model of Example 4-1 through intraperitoneal injection once on the 1st day of 8 days inducing bronchial asthma and rhinitis. The amount of IL-13 was measured and quantified by the enzyme immunosorbent detection method in the same manner.
# The amount of IL-13 was measured and quantified by the enzyme immunosorbent detection method in the same manner.
substance,measurement,setting,value
Example 3: dTBP2 (WYVYPSM) conjugated at the N-terminal with methoxy polyethylene glycol propionaldehyde (10 kDa) ({mPEG propionaldehyde 10 kDa}-WYVYPSM),reduction of IL-13 secretion,"8 times daily for 8 days, FIG. 18",about 20%
same,inhibiting IL-13 secretion,once in 4 days for a total of 2 times (FIG. 19) and once on the 1st day (FIG. 20),effective
same,IL-13 secretion inhibitory effect,"once on the 5th day of 8 days, FIG. 21",inhibitory effect
